Consider one molecule from patent US20080102039A1, “Betamethasone spray” (priority 2006, published 2008).

The nature of data set [1]: Preparation of Formulation 1: dissolution of BMV in dimethyl isosorbide and visual check for precipitation. Type of data set: physicochemical. The note with it: Formulation 1 preparation. As for the experimental part: • 1) Into vessel 1 was added the dimethyl isosorbide to which was slowly sprinkled the BMV. This was left mixing until visually dissolved. • 2) To vessel 1 was added the propylene glycol with stirring until homogenous. • 3) In vessel 2 was added the required amount of water and polysorbate 80. This was stirred until dissolved and homogenous. • 4) The 3Na.citrate.2H2O, anhyd. citric acid, imidazolidinyl urea and SDS were then added to vessel 2 and stirred until completely dissolved. • 5) The contents of vessel 2 were then poured into vessel 1 and stirred until homogenous.
A 1.1 kg batch of the 0.12% w/w Betamethasone valerate foam formulation above was then made up for a 3-month accelerated stability study using the same method: (Table 2)

The conditions of data set [2]: cited from earlier work.
The nature of data set [3]: Microscope examination of drops for crystals (Leica DM LB, drop taken every 5 mins). The data set is classed as physicochemical. How it is done:
The DMI phase was made up for a total solution volume of 500 g so 0.600 g (actual weight) of betamethasone valerate was dissolved in 25.009 g of Arlasolve DMI. The rate of addition was 0.600 g added over 30 secs that is at a rate of 0.02 g/sec. The solution was then mixed at speed setting 1 on the Bibby magnetic stirrer. 1 drop of the solution was then taken every 5 mins. and examined under the Leica DM LB microscope with a 5× lens and L plan 10× eyepiece. A 100×1 mm^2 graticule was placed over the sample. The temperatures before and after addition of DMI were also recorded.
Whilst stirring the BMV/DMI solution at speed 1 on the Bibby magnetic stirrer, the propylene glycol (50.008 g) was poured in over approx. 12 secs, at a rate of 4.17 g/sec. 1 drop of the solution was then taken every 5 mins. and examined under a Leica DM LB microscope with a 5× lens and L plan 10× eyepiece. […] The temperatures before and after addition of propylene glycol were also recorded.
15.120 g of the active phase was added to 84.880 g of the aqueous phase over 10 secs (Total vol.=100.000 g), at a rate of 1.51 g/sec. […] The temperatures before and after addition of the active phase were also recorded. […]
84.882 g of the aqueous phase were added to 15.129 g of the active phase over 10 secs (Total vol.=100.011 g). […] The temperatures before and after addition of the aqueous phase were also recorded. […]

In the case of `CCCCC(=O)O[C@]1(C(=O)CO)[C@@H](C)C[C@H]2[C@@H]3CCC4=CC(=O)C=C[C@]4(C)[C@@]3(F)[C@@H](O)C[C@@]21C` [Betamethasone valerate], the “dissolution of BMV into dimethyl isosorbide” value in data set [1] is “successfully dissolved”. Moreover, the solubility in water result in data set [2] was “practically insoluble”. Also, in data set [3] (0.600 g in 25.009 g Arlasolve DMI, stirrer speed 1), the “time to fully dissolve into the dimethyl isosorbide” value was “at least 30 minutes”. In addition, in data set [3] (propylene glycol 50.008 g poured into BMV/DMI solution), the “effect of addition of propylene glycol on precipitating the betamethasone valerate” value is “no effect”.
